Results as given in PubChem BioAssay AID298 (DTP/NCI, 2004).
Several values for one entry are separate records, joined by “and”; a condition that tells them apart may be missing. Identical values can stand only once. Results filed as inconclusive are left out.

Test system: MX-1 breast xenograft, intrarenal, nude mice, tumor weight
Assay: NCI In Vivo Anticancer Drug Screen. Data for tumor model Human Mammary Carcinoma MX-1 Xenograft (intrarenal inoculation) in NU/NU BALB/C (nude) mice
Conditions: endpoint: mean tumor weight change, higher = larger tumour
Procedure, shortened: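 Mice w/ transplanted tumors, drug vs vehicle; endpoint survival or tumor size; value = T/C.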

[1] = dose: 50.0 mg/kg/injection, schedule: Q04DX003 (sc), vehicle: Klucel (hydroxypropylcellulose) (HPC)
[2] = dose: 150.0 mg/kg/injection, schedule: Q04DX003 (ip), vehicle: saline with Tween-80
[3] = dose: 200.0 mg/kg/injection, schedule: Q01DX010 (sc), vehicle: saline

O=S(CCCl)CCCl
T/C (dose: 25.0 mg/kg/injection, schedule: Q04DX003 (sc), vehicle: Klucel (hydroxypropylcellulose) (HPC)): 94 % of control
T/C [1]: 92 % of control

OCC1OC(n2cnc3c(=S)nc[nH]c32)C(O)C1O (configuration not stated)
T/C (dose: 300.0 mg/kg/injection, schedule: Q04DX003 (sc), vehicle: saline): 86 % of control
T/C (dose: 600.0 mg/kg/injection, schedule: Q04DX003 (sc), vehicle: saline): 58 % of control
T/C (dose: 1200.0 mg/kg/injection, schedule: Q04DX003 (sc), vehicle: saline): 59 % of control and 75 % of control
T/C (dose: 1600.0 mg/kg/injection, schedule: Q04DX003 (sc), vehicle: saline): 49 % of control
T/C (dose: 2000.0 mg/kg/injection, schedule: Q04DX003 (sc), vehicle: saline): 65 % of control
T/C (dose: 2400.0 mg/kg/injection, schedule: Q04DX003 (sc), vehicle: saline): 23 % of control and 39 % of control

CCN(CC)CC(=O)O[C@]1(CC)C(=O)OCc2c1cc1n(c2=O)Cc2cc3ccccc3nc2-1
T/C (dose: 2.0 mg/kg/injection, schedule: Q04DX003 (ip), vehicle: other): 35 % of control
T/C (dose: 2.0 mg/kg/injection, schedule: Q04DX003 (ip), vehicle: water): 29 % of control
T/C (dose: 4.0 mg/kg/injection, schedule: Q04DX003 (ip), vehicle: other): 19 % of control
T/C (dose: 4.0 mg/kg/injection, schedule: Q04DX003 (ip), vehicle: water): 13 % of control
T/C (dose: 8.0 mg/kg/injection, schedule: Q04DX003 (ip), vehicle: other): 1 % of control
T/C (dose: 16.0 mg/kg/injection, schedule: Q04DX003 (ip), vehicle: other): -56 % of control
T/C (dose: 16.0 mg/kg/injection, schedule: Q04DX003 (ip), vehicle: water): -100 % of control

C[n+]1c(-c2ccc(/C=N/NC(=O)c3ccc(C(=O)N/N=C/c4ccc(-c5cn6ccccc6[n+]5C)cc4)cc3)cc2)cn2ccccc21
T/C (dose: 75.0 mg/kg/injection, schedule: Q04DX003 (ip), vehicle: saline with Tween-80): 92 % of control
T/C [2]: 56 % of control
T/C (dose: 300.0 mg/kg/injection, schedule: Q04DX003 (ip), vehicle: saline with Tween-80): 65 % of control
T/C (dose: 600.0 mg/kg/injection, schedule: Q04DX003 (ip), vehicle: saline with Tween-80): 69 % of control

Nc1ccn(C2OC(CO)C(O)C2O)c(=O)n1 (configuration not stated)
T/C (dose: 500.0 mg/kg/injection, schedule: Q04DX003 (sc), vehicle: saline): 57 % of control
T/C (dose: 1000.0 mg/kg/injection, schedule: Q04DX003 (sc), vehicle: saline): 68 % of control

Nc1nc(Br)nc2c1ncn2C1CC(O)C(CO)O1 (configuration not stated)
T/C (dose: 7.5 mg/kg/injection, schedule: Q03DX003 (ip), vehicle: saline): 109 % of control
T/C (dose: 15.0 mg/kg/injection, schedule: Q03DX003 (ip), vehicle: saline): 88 % of control
T/C (dose: 30.0 mg/kg/injection, schedule: Q03DX003 (ip), vehicle: saline): 43 % of control
T/C (dose: 60.0 mg/kg/injection, schedule: Q03DX003 (ip), vehicle: saline): 59 % of control
T/C (dose: 120.0 mg/kg/injection, schedule: Q03DX003 (ip), vehicle: saline): 65 % of control

C=CC(C)(C)n1cc(C2=C(O)C(=O)C(c3cn(C(C)(C)C=C)c4ccccc34)=C(O)C2=O)c2ccccc21
T/C [1]: 80 % of control
T/C (dose: 100.0 mg/kg/injection, schedule: Q04DX003 (sc), vehicle: Klucel (hydroxypropylcellulose) (HPC)): 96 % of control
T/C (dose: 200.0 mg/kg/injection, schedule: Q04DX003 (sc), vehicle: Klucel (hydroxypropylcellulose) (HPC)): 76 % of control
T/C (dose: 400.0 mg/kg/injection, schedule: Q04DX003 (sc), vehicle: Klucel (hydroxypropylcellulose) (HPC)): 74 % of control

COc1cc(C2=NCCc3cc4c(cc32)OCO4)cc(OC)c1OC
T/C (dose: 75.0 mg/kg/injection, schedule: Q04DX003 (ip), vehicle: saline + alcohol): 116 % of control
T/C (dose: 150.0 mg/kg/injection, schedule: Q04DX003 (ip), vehicle: saline + alcohol): 99 % of control

CCNC=O
T/C [3]: 85 % of control
T/C (dose: 400.0 mg/kg/injection, schedule: Q01DX010 (sc), vehicle: saline): 70 % of control
T/C (dose: 800.0 mg/kg/injection, schedule: Q01DX010 (sc), vehicle: saline): 27 % of control

COC12[C@@H]3N[C@@H]3CN1C1=C(C(=O)C(NCCSSCCNC3=C(C)C(=O)C4=C(C3=O)C(COC(N)=O)[C@]3(OC)C5N[C@@H]5CN43)=C(C)C1=O)[C@@H]2COC(N)=O (some centres not stated)
T/C (dose: 3.12 mg/kg/injection, schedule: Q04DX003 (ip), vehicle: DMSO): 24 % of control
T/C (dose: 6.25 mg/kg/injection, schedule: Q04DX003 (ip), vehicle: DMSO): -41 % of control

O=C(NC(Cc1ccc(I)cc1)C(=O)O)c1ccc(Br)cc1 (configuration not stated)
T/C (dose: 37.5 mg/kg/injection, schedule: Q04DX003 (ip), vehicle: sodium bicarbonate): 92 % of control
T/C (dose: 150.0 mg/kg/injection, schedule: Q04DX003 (ip), vehicle: sodium bicarbonate): 87 % of control and 112 % of control
T/C (dose: 300.0 mg/kg/injection, schedule: Q04DX003 (ip), vehicle: sodium bicarbonate): 78 % of control

CCCC1CCC(=C2C(=O)CCC2=O)O1 (configuration not stated)
T/C [2]: 68 % of control

CCOC(=O)c1ccc(NN=NCCF)cc1
T/C (dose: 150.0 mg/kg/injection, schedule: Q04DX003 (ip), vehicle: distilled water + Tween-80 + alcohol): 99 % of control
T/C (dose: 300.0 mg/kg/injection, schedule: Q04DX003 (ip), vehicle: distilled water + Tween-80 + alcohol): 89 % of control
T/C (dose: 600.0 mg/kg/injection, schedule: Q04DX003 (ip), vehicle: distilled water + Tween-80 + alcohol): 84 % of control
T/C (dose: 1200.0 mg/kg/injection, schedule: Q04DX003 (ip), vehicle: distilled water + Tween-80 + alcohol): 49 % of control

O=S(=O)(O)C1=CC(=N\Cl)/C=CC/1=N/Cl
T/C [2]: 89 % of control

O=C1C=C(N2CC2)C(=O)C(N2CC2)=C1N1CC1
T/C (dose: 25.0 micrograms/kg/injection, schedule: Q04DX003 (ip), vehicle: saline): 4 % of control
T/C (dose: 400.0 micrograms/kg/injection, schedule: Q04DX003 (ip), vehicle: saline): -100 % of control

Cc1ccc2c(c1)C1(SC(C)C(=O)N1c1ccc(Cl)cc1)C(=O)N2 (configuration not stated)
T/C (dose: 100.0 mg/kg/injection, schedule: Q04DX003 (ip), vehicle: saline with Tween-80): 107 % of control
T/C (dose: 200.0 mg/kg/injection, schedule: Q04DX003 (ip), vehicle: saline with Tween-80): 85 % of control
T/C (dose: 800.0 mg/kg/injection, schedule: Q04DX003 (ip), vehicle: saline with Tween-80): 72 % of control

CNC(=O)ON(C(C)=O)C(=O)NC
T/C (dose: 12.5 mg/kg/injection, schedule: Q01DX010 (ip), vehicle: saline): 218 % of control
T/C (dose: 25.0 mg/kg/injection, schedule: Q01DX010 (ip), vehicle: saline): 106 % of control
T/C (dose: 25.0 mg/kg/injection, schedule: Q01DX010 (sc), vehicle: saline): 104 % of control
T/C (dose: 50.0 mg/kg/injection, schedule: Q01DX010 (ip), vehicle: saline): 72 % of control
T/C (dose: 50.0 mg/kg/injection, schedule: Q01DX010 (sc), vehicle: saline): 26 % of control
T/C (dose: 100.0 mg/kg/injection, schedule: Q01DX010 (ip), vehicle: saline): 5 % of control
T/C (dose: 100.0 mg/kg/injection, schedule: Q01DX010 (sc), vehicle: saline): -42 % of control
T/C [3]: -89 % of control

S=C(N/N=C1/CCCC/C1=N/NC(=S)N1CCOCC1)N1CCOCC1
T/C (dose: 6.25 mg/kg/injection, schedule: Q04DX003 (ip), vehicle: saline with Tween-80): 81 % of control
T/C (dose: 12.5 mg/kg/injection, schedule: Q04DX003 (ip), vehicle: saline with Tween-80): 76 % of control
T/C (dose: 25.0 mg/kg/injection, schedule: Q04DX003 (ip), vehicle: saline with Tween-80): 48 % of control

Cc1ccccc1N=C(c1ccccc1)C1C(=O)c2ccccc2C1=O
T/C (dose: 150.0 mg/kg/injection, schedule: Q04DX003 (ip), vehicle: DMSO): 117 % of control
T/C (dose: 300.0 mg/kg/injection, schedule: Q04DX003 (ip), vehicle: DMSO): 102 % of control
T/C (dose: 600.0 mg/kg/injection, schedule: Q04DX003 (ip), vehicle: DMSO): 103 % of control
T/C (dose: 1200.0 mg/kg/injection, schedule: Q04DX003 (ip), vehicle: DMSO): 65 % of control

CC(=O)ON(C(C)=O)c1ccc(C(N)=O)cc1
T/C (dose: 600.0 mg/kg/injection, schedule: Q04DX003 (sc), vehicle: saline with Tween-80): 52 % of control
T/C (dose: 2400.0 mg/kg/injection, schedule: Q04DX003 (sc), vehicle: saline with Tween-80): 98 % of control

Cc1nc(N)nc(N)c1N1CCN(c2ccc(C(=O)NC(CCC(=O)O)C(=O)O)cc2)CC1 (configuration not stated)
T/C (dose: 12.5 mg/kg/injection, schedule: Q04DX003 (ip), vehicle: other): 85 % of control
T/C (dose: 25.0 mg/kg/injection, schedule: Q04DX003 (ip), vehicle: other): 112 % of control
T/C (dose: 50.0 mg/kg/injection, schedule: Q04DX003 (ip), vehicle: other): 122 % of control
T/C (dose: 100.0 mg/kg/injection, schedule: Q04DX003 (ip), vehicle: other): 87 % of control
